# Source: US10035790B2, “RORγ modulators” (BRISTOL-MYERS SQUIBB COMPANY, priority 2012, dated 2018)
# pIC50: −log10 of the molar value.
# Biological target: T1, ligand binding domain of human RORγ (A262-S507) (Homo sapiens, UniProt P51449)
# T1 construct: made in house; host or cells: E. coli
# T1 sequence (P51449 262-507): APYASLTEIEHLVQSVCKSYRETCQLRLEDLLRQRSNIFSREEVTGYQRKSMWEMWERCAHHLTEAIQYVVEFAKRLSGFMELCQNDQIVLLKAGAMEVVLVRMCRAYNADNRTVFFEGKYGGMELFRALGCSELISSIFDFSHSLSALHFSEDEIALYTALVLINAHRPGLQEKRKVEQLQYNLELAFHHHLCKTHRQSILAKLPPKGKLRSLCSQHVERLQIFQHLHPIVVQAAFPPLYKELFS
# Assay: General RORγ SPA binding assay (competition with [3H]25-hydroxycholesterol)
# Conditions: RORγ SPA binding assay, inhibition of [3H]25-hydroxycholesterol binding; read-out: IC50
# Experimental: Example 2 General RORγ SPA Binding Assay
# The binding of potential ligands to RORγ is measured by competition with [^3H]25-hydroxycholesterol using a scintillation proximity assay (SPA) binding assay. The ligand binding domain of human RORγ (A262-S507) with an N-terminal His tag is expressed in E. coli and purified using nickel affinity chromotography. 50 nM RORγ (A262-S507) is incubated with test compound at varying concentrations for 15 min at room temperature in PBS buffer containing 0.5% fatty acid free BSA. […] of [^3H]25-hydroxycholesterol is then added, and the reaction is incubated for 15 min. 4 mg/mL of Ysi Copper HIS-TAG SPA Beads (Perkin Elmer) are added, and the mixture is incubated for 30 min. The reaction is read on a MicroBeta Trilux scintillation plate reader (Perkin Elmer). IC50 values are determined from the percentage inhibition of [^3H]25-hydroxycholesterol binding.
row,SMILES,pIC50
1,"Cc1cc(C)cc(CNC(=O)c2cnc(C)nc2C2CCN(C(=O)Cc3cc(F)cc(F)c3)CC2)c1 [Compound A27, 4-(1-(2-(3,5-difluorophenyl)acetyl)piperidin-4-yl)-N-(3,5-dimethylbenzyl)-2-methylpyrimidine-5-carboxamide]",6.14
2,"CC(C)c1ncc(C(=O)NCc2ccc(Cl)c(Cl)c2)c(C2CCN(C(=O)Cc3c(F)cccc3F)CC2)n1 [Compound A28, N-(3,4-dichlorobenzyl)-4-(1-(2-(2,6-difluorophenyl)acetyl)piperidin-4-yl)-2-isopropylpyrimidine-5-carboxamide]",5.99
3,"Cc1cc(C)cc(CNC(=O)c2cnc(C)nc2C2CCN(C(=O)Cc3ccc(F)cc3)CC2)c1 [Compound A29, N-(3,5-dimethylbenzyl)-4-(1-(2-(4-fluorophenyl)acetyl)piperidin-4-yl)-2-methylpyrimidine-5-carboxamide]",5.96
4,"Cc1cc(C)cc(CNC(=O)c2cnc(C)nc2C2CCN(C(=O)Cc3cccc(C)c3)CC2)c1 [Compound A30, N-(3,5-dimethylbenzyl)-2-methyl-4-(1-(2-(m-tolyl)acetyl)piperidin-4-yl) pyrimidine-5-carboxamide]",5.84
5,Cc1cc(C)cc(CNC(=O)c2cnc(C)nc2C2CCN(C(=O)C3(c4ccccc4F)CCCC3)CC2)c1 [Compound A31],5.79
6,"Cc1cc(C)cc(CNC(=O)c2cnc(C)nc2C2CCN(C(=O)C3(c4ccccc4)CC3)CC2)c1 [Compound A32, N-(3,5-dimethylbenzyl)-2-methyl-4-(1-(1-phenylcyclopropanecarbonyl)piperidin-4-yl)pyrimidine-5-carboxamide]",5.77
7,"Cc1cc(C)cc(CNC(=O)c2cnc(C)nc2C2CCN(C(=O)c3ncccc3Cl)CC2)c1 [Compound A33, 4-(1-(3-chloropicolinoyl)piperidin-4-yl)-N-(3,5-dimethylbenzyl)-2-methylpyrimidine-5-carboxamide]",5.71
8,"Cc1cc(C)cc(CNC(=O)c2cnc(C)nc2C2CCN(C(=O)Cc3ccc(F)c(F)c3)CC2)c1 [Compound A34, 4-(1-(2-(3,4-difluorophenyl)acetyl)piperidin-4-yl)-N-(3,5-dimethylbenzyl)-2-methylpyrimidine-5-carboxamide]",5.57
9,"Cc1cc(C)cc(CNC(=O)c2cnc(C)nc2C2CCN(C(=O)C(C)(C)c3ccccc3)CC2)c1 [Compound A35, N-(3,5-dimethylbenzyl)-2-methyl-4-(1-(2-methyl-2-phenylpropanoyl)piperidin-4-yl)pyrimidine-5-carboxamide]",5.53
10,"CC(C)c1ncc(C(=O)NCc2ccc(Cl)c(Cl)c2)c(C2CCN(C(=O)Cc3ccccc3F)CC2)n1 [Compound A36, N-(3,4-dichlorobenzyl)-4-(1-(2-(2-fluorophenyl)acetyl)piperidin-4-yl)-2-isopropylpyrimidine-5-carboxamide]",5.48
11,"O=C(NCc1ccc(Cl)c(Cl)c1)c1cnc(-c2ccccc2)nc1C1CCN(C(=O)Cc2c(F)cccc2F)CC1 [Compound A37, N-(3,4-dichlorobenzyl)-4-(1-(2-(2,6-difluorophenyl)acetyl)piperidin-4-yl)-2-phenylpyrimidine-5-carboxamide]",5.38
12,"Cc1cc(C)cc(CNC(=O)c2cnc(C)nc2C2CCN(C(=O)Cc3ccccn3)CC2)c1 [Compound A38, N-(3,5-dimethylbenzyl)-2-methyl-4-(1-(2-(pyridin-2-yl)acetyl)piperidin-4-yl)pyrimidine-5-carboxamide]",5.28
13,"COc1cccc(CC(=O)N2CCC(c3nc(C)ncc3C(=O)NCc3cc(C)cc(C)c3)CC2)c1 [Compound A39, N-(3,5-dimethylbenzyl)-4-(1-(2-(3-methoxyphenyl)acetyl)piperidin-4-yl)-2-methylpyrimidine-5-carboxamide]",5.26
14,"Cc1ncc(C(=O)NCc2cccc(Cl)c2)c(C2CCN(C(=O)Cc3c(F)cccc3F)CC2)n1 [Compound A40, N-(3-chlorobenzyl)-4-(1-(2-(2,6-difluorophenyl)acetyl)piperidin-4-yl)-2-methylpyrimidine-5-carboxamide]",8.24
15,"Cc1ncc(C(=O)NCc2cc(F)cc(Cl)c2)c(C2CCN(C(=O)Cc3c(F)cccc3F)CC2)n1 [Compound A41, N-(3-chloro-5-fluorobenzyl)-4-(1-(2-(2,6-difluorophenyl)acetyl)piperidin-4-yl)-2-methylpyrimidine-5-carboxamide]",8.32
16,"Cc1ncc(C(=O)NCc2cc(Cl)ccc2F)c(C2CCN(C(=O)Cc3c(F)cccc3F)CC2)n1 [Compound A42, N-(5-chloro-2-fluorobenzyl)-4-(1-(2-(2,6-difluorophenyl)acetyl)piperidin-4-yl)-2-methylpyrimidine-5-carboxamide]",8.29
17,"Cc1cc(C)cc(CNC(=O)c2cnc(C3CC3)nc2C2CCN(C(=O)Cc3c(F)cccc3F)CC2)c1 [Compound A43, 2-cyclopropyl-4-(1-(2-(2,6-difluorophenyl)acetyl)piperidin-4-yl)-N-(3,5-dimethylbenzyl)pyrimidine-5-carboxamide]",8.27
18,"Cc1ncc(C(=O)NCc2cccc(C(F)(F)F)n2)c(C2CCN(C(=O)Cc3c(F)cccc3F)CC2)n1 [Compound A44, 4-(1-(2-(2,6-difluorophenyl)acetyl)piperidin-4-yl)-2-methyl-N-((6-(trifluoromethyl)pyridin-2-yl)methyl)pyrimidine-5-carboxamide]",8.24
19,"O=C(NCc1cccc(Cl)c1)c1cnc(C2CC2)nc1C1CCN(C(=O)Cc2c(F)cccc2F)CC1 [Compound A45, N-(3-chlorobenzyl)-2-cyclopropyl-4-(1-(2-(2,6-difluorophenyl)acetyl)piperidin-4-yl)pyrimidine-5-carboxamide]",8.22
20,"Cc1ncc(C(=O)NCc2cccc(C(F)(F)F)c2)c(C2CCN(C(=O)Cc3c(F)cccc3F)CC2)n1 [Compound A46, 4-(1-(2-(2,6-difluorophenyl)acetyl)piperidin-4-yl)-2-methyl-N-(3-(trifluoromethyl)benzyl)pyrimidine-5-carboxamide]",8.21
21,"Cc1ncc(C(=O)NCc2ccnc(C(F)(F)F)c2)c(C2CCN(C(=O)Cc3c(F)cccc3F)CC2)n1 [Compound A47, 4-(1-(2-(2,6-difluorophenyl)acetyl)piperidin-4-yl)-2-methyl-N-((2-(triflnoromethyl)pyridin-4-yl)methyl)pyrimidine-5-carboxamide]",8.20

# Other lines, results leading:
row,pIC50,SMILES
1,8.17,"CCc1ncc(C(=O)NCc2cccc(Cl)c2)c(C2CCN(C(=O)Cc3c(F)cccc3F)CC2)n1 [Compound A48, N-(3-chlorobenzyl)-4-(1-(2-(2,6-difluorophenyl)acetyl)piperidin-4-yl)-2-ethylpyrimidine-5-carboxamide]"
2,8.17,"Cc1ncc(C(=O)NCc2cc(Cl)nc(Cl)c2)c(C2CCN(C(=O)Cc3c(F)cccc3F)CC2)n1 [Compound A49, N-((2,6-dichloropyridin-4-yl)methyl)-4-(1-(2-(2,6-difluorophenyl)acetyl)piperidin-4-yl)-2-methylpyrimidine-5-carboxamide]"
3,8.15,"Cc1ncc(C(=O)NCc2cccc(C#N)c2)c(C2CCN(C(=O)Cc3c(F)cccc3F)CC2)n1 [Compound A50, N-(3-cyanobenzyl)-4-(1-(2-(2,6-difluorophenyl)acetyl)piperidin-4-yl)-2-methylpyrimidine-5-carboxamide]"
4,8.14,"Cc1ncc(C(=O)NCc2cc(Cl)cc(Cl)c2)c(C2CCN(C(=O)Cc3c(F)cccc3F)CC2)n1 [Compound A51, N-(3,5-dichlorobenzyl)-4-(1-(2-(2,6-difluorophonyl)acetyl)piperidin-4-yl)-2-methylpyrimidine-5-carboxamide]"
5,8.12,"COc1cc(CNC(=O)c2cnc(C)nc2C2CCN(C(=O)Cc3c(F)cccc3F)CC2)cc(Cl)n1 [Compound A52, N-((2-chloro-6-methoxypyridin-4-yl)methyl)-4-(1-(2-(2,6-difluorophenyl)acetyl)piperidin-4-yl)-2-methylpyrimidine-5-carboxamide]"
6,8.09,"Cc1ncc(C(=O)NCc2cccc(OC(F)(F)F)c2)c(C2CCN(C(=O)Cc3c(F)cccc3F)CC2)n1 [Compound A53, 4-(1-(2-(2,6-difluorophenyl)acetyl)piperidin-4-yl)-2-methyl-N-(3-(trifluoromethoxy)benzyl)pyrimidine-5-carboxamide]"
7,7.86,"Cc1ncc(C(=O)NCc2cccc(Cl)c2F)c(C2CCN(C(=O)Cc3c(F)cccc3F)CC2)n1 [Compound A54, N-(3-chloro-2-fluorobenzyl)-4-(1-(2-(2,6-ditluorophenyl)acetyl)piperidin-4-yl)-2-methylpyrimidine-5-carboxamide]"
8,7.72,"Cc1ncc(C(=O)NCc2ccnc(C#N)c2)c(C2CCN(C(=O)Cc3c(F)cccc3F)CC2)n1 [Compound A55, N-((2-cyanopyridin-4-yl)methyl)-4-(1-(2-(2,6-difluorophenyl)acetyl)piperidin-4-yl)-2-methylpyrimidine-5-carboxamide]"
9,7.71,"Cc1ncc(C(=O)NCc2ccnc(Cl)c2)c(C2CCN(C(=O)Cc3c(F)cccc3F)CC2)n1 [Compound A56, N-((2-chloropyridin-4-yl)methyl)-4-(1-(2-(2,6-difluorophenyl)acetyl)piperidin-4-yl)-2-methylpyrimidine-5-carboxamide]"
